In ChEMBL document CHEMBL3734690, “Design, Synthesis, and Biological Evaluation of Indole Biphenylcarboxylic Acids as PPARγ Antagonists” (ACS Med Chem Lett, 2015):

Columns and labels:
[1] = in vivo; conditions: mouse, plasma, po, 20 mg/kg
Description: Plasma concentration in mouse at 20 mg/kg, po after 2 hrs

[2] = in vivo; conditions: mouse, plasma, po, 20 mg/kg; remark: listed apart in the source
Description: Plasma concentration in mouse at 20 mg/kg, po after 6 hrs

concentration at 2 h [1] [nM] | concentration at 6 h [2] [nM] | Compound
400 | 30 | Cc1c(C)n(Cc2ccc(-c3ccccc3C(=O)NO)cc2)c2ccc(C(=O)N[C@@H](C)c3cccc(C(C)C)c3)cc12
5600 | 1900 | Cc1c(C)n(Cc2ccc(-c3ccccc3C(=O)O)cc2)c2ccc(C(=O)N[C@@H](C)c3ccc(C(C)(C)C)cc3)cc12
2500 | 100 | Cc1c(C)n(Cc2ccc(-c3ccccc3C(N)=O)cc2)c2ccc(C(=O)N[C@@H](C)c3cccc(C(C)C)c3)cc12
200 | 10 | Cc1c(C)n(Cc2ccc(-c3ccccc3-c3n[nH]c(=O)o3)cc2)c2ccc(C(=O)N[C@@H](C)c3cccc(C(C)C)c3)cc12
19000 | 2400 | Cc1c(C)n(Cc2ccc(-c3ccccc3C(=O)O)cc2)c2ccc(C(=O)N[C@@H](C)c3cccc(C4CC4)c3)cc12
